The EC50 is the concentration needed to bring the measured effect to its halfway point. Broadly, the Ki is the dissociation constant of the complex between target and ligand, obtained from inhibition or displacement. By pKi is commonly meant the negative decadic logarithm of the Ki, by convention in mol/L. For orientation: Emax means the size of the effect at its maximum, as opposed to the concentration needed.

These results are taken from patent US10660900B2 (priority 2014, dated 2020).

Values joined by “and” are separate entries in the source; they are usually repeats but may differ in a detail not shown here. Equal values may be shown once. Read-outs that look alike come from different tables or passages of the source.

The target of data set [1] is T1, human OPRM (Homo sapiens, UniProt P35372). The arrangement: expressed in transfected cells; host or cells: CHO-K1 (cell line provided by Dr. Toll, Torrey Pines Institute); membranes prepared in house. The settings on record: cited from earlier work.
For another data set, the system named is human OPRK. Description: biochemical. The data set is classed as binding.
Data set [2] concerns the target T1, human OPRM. Also on record: expressed in transfected cells; host or cells: CHO-K1 (cell line provided by Dr. Toll, Torrey Pines Institute); membranes prepared in house. The settings on record: cited from earlier work. This is another data set of the same source.
Data set [3] has as its target T2, OPRK (Homo sapiens, UniProt P41145). Put plainly: biochemical. The arrangement: expressed in transfected cells; host or cells: CHO-K1. To be noted: for Emax: read-out: Efficacy (Emax).
Data set [4] deals with opioid receptor delta (OPRD) (Bos taurus, UniProt F1N083). The settings on record: printed in the SEM column; literature; cited from earlier work.
Data set [5] addresses T1, human OPRM. Description: biochemical. Also on record: expressed in transfected cells; host or cells: CHO-K1 (cell line provided by Dr. Toll, Torrey Pines Institute); membranes prepared in house. To be noted: Ki. It counts as binding.
For a further data set, the target named is calf OPRM (Bos taurus, UniProt P79350). The settings on record: cited from earlier work.
Data set [6] has as its target T1, human OPRM. Description: biochemical. Also on record: expressed in transfected cells; host or cells: CHO-K1 (cell line provided by Dr. Toll, Torrey Pines Institute); membranes prepared in house. The settings on record: for Emax: read-out: Efficacy (Emax).
Data set [7] can be described thus: Single ascending oral dose pharmacokinetics of noribogaine in healthy volunteers (plasma and urine, LCMSMS). To be noted: for AUC0-216 / AUC0-∞ / Cmax / Tmax / t1/2: mean (SD), n = 6.
Data set [8] deals with T2, OPRK. Put plainly: cell-based. The arrangement: host or cells: CHO-K1.
The target of data set [9] is T1, human OPRM. It counts as cell-based. The arrangement: host or cells: CHO-K1.
The target of data set [10] is T2, OPRK. Description: biochemical. The arrangement: expressed in transfected cells; host or cells: CHO-K1. It counts as binding. The settings on record: Ki.
In another data set the target is calf OPRK (Bos taurus, UniProt Q2KIP6). The settings on record: calf receptor; literature; cited from earlier work.
Setting [11] is: from literature (or literature/this work) values.
Where [12] appears, read: 30 mg single oral noribogaine, plasma.
The mark [13] stands for this setting: 60 mg single oral noribogaine, plasma.

Chain of calf OPRM (P79350 whole entry): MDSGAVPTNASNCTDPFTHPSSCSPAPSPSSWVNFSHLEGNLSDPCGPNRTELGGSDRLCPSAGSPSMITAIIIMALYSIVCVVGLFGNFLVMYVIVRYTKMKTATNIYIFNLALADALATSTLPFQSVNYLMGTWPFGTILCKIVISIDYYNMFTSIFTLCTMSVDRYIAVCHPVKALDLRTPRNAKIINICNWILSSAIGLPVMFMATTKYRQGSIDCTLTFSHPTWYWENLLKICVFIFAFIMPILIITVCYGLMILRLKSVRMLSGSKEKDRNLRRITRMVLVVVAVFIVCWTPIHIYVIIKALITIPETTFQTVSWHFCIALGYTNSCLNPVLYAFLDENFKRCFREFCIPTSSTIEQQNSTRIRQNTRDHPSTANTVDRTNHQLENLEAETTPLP
T2 sequence (P41145 whole entry): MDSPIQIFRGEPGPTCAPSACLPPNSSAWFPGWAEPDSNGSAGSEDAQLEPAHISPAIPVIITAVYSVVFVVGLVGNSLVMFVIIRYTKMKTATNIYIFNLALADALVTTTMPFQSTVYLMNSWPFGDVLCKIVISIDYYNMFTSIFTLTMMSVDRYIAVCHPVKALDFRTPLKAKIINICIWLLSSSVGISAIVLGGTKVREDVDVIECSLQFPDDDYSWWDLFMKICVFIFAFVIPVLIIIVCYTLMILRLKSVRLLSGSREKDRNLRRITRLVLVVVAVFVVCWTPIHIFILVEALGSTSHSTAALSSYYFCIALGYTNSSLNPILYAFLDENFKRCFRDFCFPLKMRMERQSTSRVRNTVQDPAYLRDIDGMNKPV
T1 sequence (P35372 whole entry): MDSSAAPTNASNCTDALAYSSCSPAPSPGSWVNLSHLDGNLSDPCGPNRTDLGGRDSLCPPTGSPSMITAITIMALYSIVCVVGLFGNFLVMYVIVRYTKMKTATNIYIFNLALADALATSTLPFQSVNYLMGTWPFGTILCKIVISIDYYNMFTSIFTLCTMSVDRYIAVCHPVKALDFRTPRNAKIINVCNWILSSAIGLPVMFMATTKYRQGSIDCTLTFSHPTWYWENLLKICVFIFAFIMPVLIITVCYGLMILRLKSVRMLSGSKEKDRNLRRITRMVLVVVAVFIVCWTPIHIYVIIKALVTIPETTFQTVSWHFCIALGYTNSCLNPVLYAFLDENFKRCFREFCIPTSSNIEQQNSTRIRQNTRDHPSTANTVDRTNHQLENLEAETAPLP
Chain of calf OPRK (Q2KIP6 whole entry): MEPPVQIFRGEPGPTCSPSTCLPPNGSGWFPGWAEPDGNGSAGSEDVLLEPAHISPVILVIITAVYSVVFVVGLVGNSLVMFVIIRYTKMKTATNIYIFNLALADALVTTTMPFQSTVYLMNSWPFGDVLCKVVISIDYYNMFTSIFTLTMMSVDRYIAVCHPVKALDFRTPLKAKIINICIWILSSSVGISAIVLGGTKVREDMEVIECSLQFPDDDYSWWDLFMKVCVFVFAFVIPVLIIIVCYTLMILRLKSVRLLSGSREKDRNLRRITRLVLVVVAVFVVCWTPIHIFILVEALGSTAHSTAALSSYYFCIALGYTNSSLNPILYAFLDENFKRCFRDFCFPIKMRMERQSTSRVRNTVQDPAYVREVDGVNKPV
Chain of opioid receptor delta (OPRD) (F1N083 1-372): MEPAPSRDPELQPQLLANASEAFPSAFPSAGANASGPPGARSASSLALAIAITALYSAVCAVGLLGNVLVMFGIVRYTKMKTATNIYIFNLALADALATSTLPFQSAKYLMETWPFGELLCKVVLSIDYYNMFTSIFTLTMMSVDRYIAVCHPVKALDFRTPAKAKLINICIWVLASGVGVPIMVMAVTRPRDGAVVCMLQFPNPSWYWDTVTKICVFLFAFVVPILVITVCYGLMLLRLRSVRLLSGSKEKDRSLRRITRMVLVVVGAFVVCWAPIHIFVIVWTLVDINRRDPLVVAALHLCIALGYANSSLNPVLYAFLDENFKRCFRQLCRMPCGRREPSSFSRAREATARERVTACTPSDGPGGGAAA

On to `NC(N)=Nc1ccc2c3c([nH]c2c1)[C@@H]1Oc2c(O)ccc4c2[C@@]12CCN(CC1CC1)[C@H](C4)[C@]2(O)C3` [6′GNTI, 6′-guanidinonaltrindole], for which, on human OPRM [1] (activation, literature), the EC50 was above 1000 nM and the Efficacy is 0~ %. Besides, in the data set with human OPRK (setting [11]), the “ΔpKi = pKi(OPRK) − pKi(OPRM), OPRK Specificity” value (“ΔpKi = pKi(OPRK) − pKi(OPRM)” for short) was found to be 1.84. In addition, at human OPRM [2], the Ki was 82 nM and the pKi is reported as 7.1.
With `C=C1CC[C@@]2(O)[C@H]3Cc4ccc(O)c5c4[C@@]2(CCN3CC2CC2)[C@H]1O5` [Nalmefene, nalmefene, reference compound], on OPRK [3], the “Efficacy (inhibition)” value is given as −65%, the “e-coupling (pKi-pEC50)” value is listed as 0.92, the “e-coupling (pKi-pKe)” value is 0.23 and the “own reduced signal level to which rival agonist signal is leveled down” value worked out at 30%. Further, the Emax at OPRK [3] came out at 35 ± 4.7%.
With `CCC1CC2CC3c4[nH]c5ccc(OC)cc5c4CCN(C2)C13` (stereo not shown) [Ibogaine, ibogaine, reference compound], the “Ki at OPRD” value in [4] is on record as “(OPRD − N.Q.)”. Besides, the Ki at human OPRM [5] stood at 6920 ± 830 nM. At calf OPRM (calf receptor, literature), the Ki is 11000 nM and the pKi was 5.0. For the same molecule, on human OPRM [6], the “stimulation of the OPRM G-protein pathway” value was “failed to stimulate the OPRM G-protein pathway” and the Emax is -2.9%.
Take `C[C@@H](NC(=O)[C@@H](N)Cc1ccc(O)cc1)C(=O)NCC(=O)N(C)[C@@H](Cc1ccccc1)C(=O)NCCO` [DAMGO, [D-Ala2, NMe-Phe4, Gly-ol5]-enkephalin]: the “ΔpKi = pKi(OPRK) − pKi(OPRM)” value with human OPRK (setting [11]) was below −3.
Turning to `CC[C@H]1C[C@@H]2C[C@H]3c4[nH]c5ccc(OC6OC(C(=O)O)C(O)C(O)C6O)cc5c4CCN(C2)[C@@H]13` (stereo partly shown) [Noribogaine glucuronide, noribogaine glucuronide], the “proportion of noribogaine glucuronide Cmax and AUC relative to noribogaine” value in data set [7] (30 mg and 60 mg dose groups) is 3-4%. Moreover, in data set [7] (setting [12]), the AUC0-216 was 25.7 (9.1) ng · hr/ml, the “AUC0-∞” value is 25.8 (9.3) ng · hr/ml, the Cmax is 1.8 (0.6) ng/ml and the Tmax is on record as 3.0 (0.6) hr. Moreover, in data set [7] (setting [12]), the t1/2 is 20.6 (4.9) hr. In [7] (setting [13]), the AUC0-216 is given as 65.0 (21.5) ng · hr/ml, the “AUC0-∞” value is given as 67.1 (21.9) ng · hr/ml, the Cmax is reported as 4.1 (1.2) ng/ml and the Tmax was 3.8 (1.2) hr. Besides, the t1/2 in data set [7] (setting [13]) is 23.1 (3.0) hr. Moreover, the “time by which detected in all subjects” value in [7] (plasma, 30 mg and 60 mg noribogaine) is at most 0.75 h. In data set [7] (plasma, across dose groups), the Mean half-life lay within 21 to 23 h and the “time of peak concentrations after oral noribogaine dosing” value lay within 3 to 4 h.
In the case of `Oc1ccc2c3c1O[C@H]1c4[nH]c5c(c4C[C@@]4(O)[C@@H](C2)N(CC2CC2)CC[C@]314)C[C@@]1(O)[C@H]2Cc3ccc(O)c4c3[C@@]1(CCN2CC1CC1)[C@H]5O4` [NorBNI, nor-binaltorphimine, reference compound], the “ΔpKi = pKi(OPRK) − pKi(OPRM)” value in the data set with human OPRK (setting [11]) is on record as 2.0. Moreover, the “Efficacy (inhibition)” value on OPRK [3] and on OPRK [8] (inhibitory component against Dynorphin A) was −100% throughout. Also, the “e-coupling (pKi-pKe)” value at OPRK [3] was −0.1; at OPRK [8] (inhibitory component), 0.27.
Consider [Met]-Enkephalin, for which the values for the Efficacy on human OPRM [1] and on human OPRM [9] were around 95% and 100%, respectively. For the same molecule, in the data set with human OPRK, the “ΔpKi = pKi(OPRK) − pKi(OPRM)” value is below −3.
As for `COCCC1CC2CN3CCc4c([nH]c5ccccc45)C(C(=O)OC)(C2)C13` (stereo not shown) [18-MC, 18-methoxycoronaridine, reference compound], the “ΔpKi = pKi(OPRK) − pKi(OPRM)” value with human OPRK (setting [11]) was −0.7. In addition, the “ΔpKi = pKi(OPRK) − pKi(OPRM)” value with human OPRK (from values of this work) was 0.1. Moreover, in the data set on human OPRK (in these assays), the “affinity at human OPRK versus OPRM” value is “equi-affine to both human OPRK and OPRM”. In addition, on OPRK [3], the concentration for a half-maximal effect (EC50) is around 16000 nM, the “Efficacy (inhibition)” value is given as −100%, the “e-coupling (pKi-pEC50)” value was 0.94~ and the “e-coupling (pKi-pKe)” value was 0.39. For the same molecule, on OPRK [3], the “stimulation of [35S]GTPγS binding to OPRK” value is on record as “failed to stimulate” and the Emax was below 5%. The Ki on OPRK [3] (Ke) was 2800 nM and 2900 nM and 4300 nM. For the same molecule, at OPRK [10] (Table 9 summary column, value of this work), the Ki was determined as 1800 nM. On OPRK [10] ([3H]-U69,593), this molecule gave a Ki of 1840 ± 120 nM. Further, the Ki on human OPRM [5] is 2260 nM and 2360 nM. In addition, the “reported selectivity at OPRM” value on calf OPRM (Glick, Maisonneuve et al. 2000) is reported as 5 ×. Also, the pKi at calf OPRM (calf receptor, literature) is reported as 6.0. Also, at human OPRM [6], the “stimulation of the OPRM G-protein pathway” value is reported as “failed to stimulate the OPRM G-protein pathway” and the Emax was below 5%. On calf OPRK, the Ki was 5100 nM and the pKi is recorded as 5.3.
